# Laboratory results from patent US20050197350A1, “Novel quinoline, tetrahydroquinazoline, and pyrimidine derivatives and methods of treatment related to the use thereof” (TAISHO PHARMACEUTICAL CO., LTD., priority 2003, published 2005).
# Test system: MCH receptors
# Assay: MCH receptor activity class (method not given)
# Settings: class by percent of control at 10^-7 M or IC50
row,SMILES,class
1,CN(C)c1ccnc(N[C@H]2CC[C@@H](NC(=O)Nc3ccccc3Cl)CC2)n1 [compound 2179],3 (Class 3 The value of percent of control at 10^−7 M was more than 60% or the value of IC50 was more than 200 nM.)
2,Cc1cccc(C)c1NC(=O)N[C@H]1CC[C@@H](Nc2nccc(N(C)C)n2)CC1 [compound 2180],3 (Class 3 The value of percent of control at 10^−7 M was more than 60% or the value of IC50 was more than 200 nM.)
3,CN(C)c1ccnc(N[C@H]2CC[C@@H](NC(=O)Nc3ccc(F)cc3F)CC2)n1 [compound 2181],3 (Class 3 The value of percent of control at 10^−7 M was more than 60% or the value of IC50 was more than 200 nM.)
4,CCc1cccc(C)c1NC(=O)N[C@H]1CC[C@@H](Nc2nccc(N(C)C)n2)CC1 [compound 2182],3 (Class 3 The value of percent of control at 10^−7 M was more than 60% or the value of IC50 was more than 200 nM.)
5,CN(C)c1ccnc(N[C@H]2CC[C@@H](NC(=O)Nc3ccc(F)cc3)CC2)n1 [compound 2184],3 (Class 3 The value of percent of control at 10^−7 M was more than 60% or the value of IC50 was more than 200 nM.)
6,CSc1ccc(NC(=O)N[C@H]2CC[C@@H](Nc3nccc(N(C)C)n3)CC2)cc1 [compound 2185],3 (Class 3 The value of percent of control at 10^−7 M was more than 60% or the value of IC50 was more than 200 nM.)
7,CN(C)c1ccnc(N[C@H]2CC[C@@H](NC(=O)Nc3ccccc3C(F)(F)F)CC2)n1 [compound 2186],3 (Class 3 The value of percent of control at 10^−7 M was more than 60% or the value of IC50 was more than 200 nM.)
8,"Cc1cc(C)c(NC(=O)N[C@H]2CC[C@@H](Nc3nccc(N(C)C)n3)CC2)c(C)c1 [compound 2187, N-(cis-4-{[4-(dimethylamino)pyrimidin-2-yl]amino}cyclohexyl)-N′-mesitylurea]",2 (Class 2: The value of percent of control at 10^−7 M was from 40% to 60% or the value of IC′50 was from 50 nM to 200 nM.)
9,Cc1ccccc1NC(=O)N[C@H]1CC[C@@H](Nc2nccc(N(C)C)n2)CC1 [compound 2188],3 (Class 3 The value of percent of control at 10^−7 M was more than 60% or the value of IC50 was more than 200 nM.)
10,"CN(C)c1ccnc(N[C@H]2CC[C@@H](NC(=O)Nc3c(Cl)cc(Cl)cc3Cl)CC2)n1 [compound 2189, N-(cis-4-{[4-(dimethylamino)pyrimidin-2-yl]amino}cyclohexyl)-N′-(2,4,6-trichlorophenyl)urea]",1 (Class 1: The value of percent of control at 10^−7 M was less than 40% or the value of IC50 was less than 50 nM.)
11,"CN(C)c1ccnc(N[C@H]2CC[C@@H](NC(=O)Nc3c(F)cc(Br)cc3Br)CC2)n1 [compound 2191, N-(2,4-dibromo-6-fluorophenyl)-N′-(cis-4-{[4-(dimethylamino)pyrimidin-2-yl]amino}cyclohexyl)urea]",1 (Class 1: The value of percent of control at 10^−7 M was less than 40% or the value of IC50 was less than 50 nM.)
12,CCc1cccc(CC)c1NC(=O)N[C@H]1CC[C@@H](Nc2nccc(N(C)C)n2)CC1 [compound 2192],3 (Class 3 The value of percent of control at 10^−7 M was more than 60% or the value of IC50 was more than 200 nM.)
13,CN(C)c1ccnc(N[C@H]2CC[C@@H](NC(=O)Nc3c(Cl)cccc3C(F)(F)F)CC2)n1 [compound 2193],3 (Class 3 The value of percent of control at 10^−7 M was more than 60% or the value of IC50 was more than 200 nM.)
14,Cc1cccc(Cl)c1NC(=O)N[C@H]1CC[C@@H](Nc2nccc(N(C)C)n2)CC1 [compound 2194],3 (Class 3 The value of percent of control at 10^−7 M was more than 60% or the value of IC50 was more than 200 nM.)
15,CN(C)c1ccnc(N[C@H]2CC[C@@H](NC(=O)NCc3ccccc3Cl)CC2)n1 [compound 2195],3 (Class 3 The value of percent of control at 10^−7 M was more than 60% or the value of IC50 was more than 200 nM.)
16,CCc1cccc(C(C)C)c1NC(=O)N[C@H]1CC[C@@H](Nc2nccc(N(C)C)n2)CC1 [compound 2196],3 (Class 3 The value of percent of control at 10^−7 M was more than 60% or the value of IC50 was more than 200 nM.)
17,CCc1ccccc1NC(=O)N[C@H]1CC[C@@H](Nc2nccc(N(C)C)n2)CC1 [compound 2197],3 (Class 3 The value of percent of control at 10^−7 M was more than 60% or the value of IC50 was more than 200 nM.)
18,CN(C)c1ccnc(N[C@H]2CC[C@@H](NC(=O)Nc3ccccc3I)CC2)n1 [compound 2198],3 (Class 3 The value of percent of control at 10^−7 M was more than 60% or the value of IC50 was more than 200 nM.)
19,Cc1cccc(C(C)C)c1NC(=O)N[C@H]1CC[C@@H](Nc2nccc(N(C)C)n2)CC1 [compound 2199],3 (Class 3 The value of percent of control at 10^−7 M was more than 60% or the value of IC50 was more than 200 nM.)
20,CC(C)c1ccccc1NC(=O)N[C@H]1CC[C@@H](Nc2nccc(N(C)C)n2)CC1 [compound 2200],3 (Class 3 The value of percent of control at 10^−7 M was more than 60% or the value of IC50 was more than 200 nM.)
21,Cc1c(NC(=O)N[C@H]2CC[C@@H](Nc3nccc(N(C)C)n3)CC2)cccc1[N+](=O)[O-] [compound 2201],3 (Class 3 The value of percent of control at 10^−7 M was more than 60% or the value of IC50 was more than 200 nM.)

row,SMILES,class
1,CCCc1ccccc1NC(=O)N[C@H]1CC[C@@H](Nc2nccc(N(C)C)n2)CC1 [compound 2202],3 (Class 3 The value of percent of control at 10^−7 M was more than 60% or the value of IC50 was more than 200 nM.)
2,Cc1cccc(C(C)(C)C)c1NC(=O)N[C@H]1CC[C@@H](Nc2nccc(N(C)C)n2)CC1 [compound 2203],3 (Class 3 The value of percent of control at 10^−7 M was more than 60% or the value of IC50 was more than 200 nM.)
3,CN(C)c1ccnc(N[C@H]2CC[C@@H](NC(=O)Nc3ccccc3C(C)(C)C)CC2)n1 [compound 2204],3 (Class 3 The value of percent of control at 10^−7 M was more than 60% or the value of IC50 was more than 200 nM.)
4,Cc1c(Cl)cccc1NC(=O)N[C@H]1CC[C@@H](Nc2nccc(N(C)C)n2)CC1 [compound 2205],3 (Class 3 The value of percent of control at 10^−7 M was more than 60% or the value of IC50 was more than 200 nM.)
5,CN(C)c1ccnc(N[C@H]2CC[C@@H](NC(=O)Nc3c(F)cc(Br)cc3F)CC2)n1 [compound 2206],3 (Class 3 The value of percent of control at 10^−7 M was more than 60% or the value of IC50 was more than 200 nM.)
6,CN(C)c1ccnc(N[C@H]2CC[C@@H](NC(=O)Nc3ccc(Cl)cc3C(F)(F)F)CC2)n1 [compound 2207],3 (Class 3 The value of percent of control at 10^−7 M was more than 60% or the value of IC50 was more than 200 nM.)
7,CN(C)c1ccnc(N[C@H]2CC[C@@H](NC(=O)Nc3ccc(C#N)cc3)CC2)n1 [compound 2208],3 (Class 3 The value of percent of control at 10^−7 M was more than 60% or the value of IC50 was more than 200 nM.)
8,"CN(C)c1ccnc(N[C@H]2CC[C@@H](NC(=O)NC(c3ccccc3)c3ccccc3)CC2)n1 [compound 2209, N-(cis-4-{[4-(dimethylamino)pyrimidin-2-yl]amino}cyclohexyl)-N′-(diphenylmethyl)urea]",1 (Class 1: The value of percent of control at 10^−7 M was less than 40% or the value of IC50 was less than 50 nM.)
9,"Cc1cc(Br)cc(C)c1NC(=O)N[C@H]1CC[C@@H](Nc2nccc(N(C)C)n2)CC1 [compound 2210, N-(4-bromo-2,6-dimethylphenyl)-N′-(cis-4-{[4-(dimethylamino)pyrimidin-2-yl]amino}cyclohexyl)urea]",1 (Class 1: The value of percent of control at 10^−7 M was less than 40% or the value of IC50 was less than 50 nM.)
10,Cc1noc(-c2ccccc2)c1NC(=O)N[C@H]1CC[C@@H](Nc2nccc(N(C)C)n2)CC1 [compound 2211],3 (Class 3 The value of percent of control at 10^−7 M was more than 60% or the value of IC50 was more than 200 nM.)
11,Cc1cc(NC(=O)N[C@H]2CC[C@@H](Nc3nccc(N(C)C)n3)CC2)c(C(F)(F)F)o1 [compound 2212],3 (Class 3 The value of percent of control at 10^−7 M was more than 60% or the value of IC50 was more than 200 nM.)
12,CN(C)c1ccnc(N[C@H]2CC[C@@H](NC(=O)Nc3ccccc3Br)CC2)n1 [compound 2213],3 (Class 3 The value of percent of control at 10^−7 M was more than 60% or the value of IC50 was more than 200 nM.)
13,CN(C)c1ccnc(N[C@H]2CC[C@@H](NC(=O)Nc3ccccc3-c3ccccc3)CC2)n1 [compound 2214],3 (Class 3 The value of percent of control at 10^−7 M was more than 60% or the value of IC50 was more than 200 nM.)
14,CCCCNC(=O)N[C@H]1CC[C@@H](Nc2nccc(N(C)C)n2)CC1 [compound 2215],3 (Class 3 The value of percent of control at 10^−7 M was more than 60% or the value of IC50 was more than 200 nM.)
15,Cc1cccc(NC(=O)N[C@H]2CC[C@@H](Nc3nccc(N(C)C)n3)CC2)c1C [compound 2216],3 (Class 3 The value of percent of control at 10^−7 M was more than 60% or the value of IC50 was more than 200 nM.)
16,CCOC(=O)c1cccc(NC(=O)N[C@H]2CC[C@@H](Nc3nccc(N(C)C)n3)CC2)c1 [compound 2217],3 (Class 3 The value of percent of control at 10^−7 M was more than 60% or the value of IC50 was more than 200 nM.)
17,C=C(C)c1cccc(C(C)(C)NC(=O)N[C@H]2CC[C@@H](Nc3nccc(N(C)C)n3)CC2)c1 [compound 2218],3 (Class 3 The value of percent of control at 10^−7 M was more than 60% or the value of IC50 was more than 200 nM.)
18,CN(C)c1ccnc(N[C@H]2CC[C@@H](NC(=O)Nc3cccc4ccccc34)CC2)n1 [compound 2220],3 (Class 3 The value of percent of control at 10^−7 M was more than 60% or the value of IC50 was more than 200 nM.)
19,CN(C)c1ccnc(N[C@H]2CC[C@@H](NC(=O)NC3C[C@H]3c3ccccc3)CC2)n1 (some centres unmarked) [compound 2221],3 (Class 3 The value of percent of control at 10^−7 M was more than 60% or the value of IC50 was more than 200 nM.)
20,CN(C)c1ccnc(N[C@H]2CC[C@@H](NC(=O)Nc3ccc(Oc4ccccc4)cc3)CC2)n1 [compound 2222],3 (Class 3 The value of percent of control at 10^−7 M was more than 60% or the value of IC50 was more than 200 nM.)
